Measured values published in patent publication US8362201B2 (priority 2000, dated 2013).

Columns and labels:
[1] = test system: whole-cell calcium channel currents in isolated cockroach neurons; details: 0.1 µM; cited from earlier work
[2] = test system: bee brain calcium channel (ICa); assay type: cell-based, Apis mellifera
[3] = test system: insect versus vertebrate calcium channels
mouse sensory neuron ICa = assay type: cell-based

Substance	inhibition of whole-cell calcium channel currents [1]	concentration for maximum inhibition of ICa [2]	EC50 ([2]; read-out: EC50 for inhibition of ICa)	preference for insect versus vertebrate calcium channels [3]	maximum ICa inhibition (mouse sensory neuron ICa)	EC50 (mouse sensory neuron ICa; read-out: EC50 for inhibition of a component of ICa)
omega-atracotoxin-Hv1a [ω-ACTX-Hv1a]	25±10%	–	–	–	–	–
ω-agatoxin-IVA (KKKCIAKDYGRCKWGGTPCCRGRGCICSIMGTNCECKPRLIMEGLGLA)	–	> 100 nM	10 nM	2 fold	~40%	~20 nM
